Read-outs that look alike come from different tables or passages of the source.
Legend:
[1] = Hydrolysis of FP derivatives in human plasma; format: in vitro ADME; details: 37° C., one hour, read-out: Hydrolyzing rate
Protocol: (§1) Each reaction mixture was incubated at 37° C. for one hour.
(§2) The free FP formed by esterase in the plasma was extracted with benzene. After treating the extract with N,O-bis(trimethylsilylacetamide) for trimethylsilylation, the obtained material was determined by gas-liquid chromatography.

[2] = test system: carrageenan-induced edema; assay: Inhibitory effect on carrageenan-induced edema; format: in vivo, Wistar male rats; details: Rattus norvegicus
Protocol: Five Wistar male rats weighing about 150 g. were used as one group. A 1% dispersion of carrageenan was injected intracutaneously into the foot pad of the right hind foot in a dose of 0.1 ml./rat. The compounds to be tested were orally administered to the rats fasted for 15 hours one hour before the carrageenan injection, or intravenously administered 2 hours […] the carrageenan injection. The volume of the foot subjected to the injection was measured by a mercury plethysmography 3 hours after the carrageenan injection on the test by oral route or 2 hours after the carrageenan injection on the test by intravenous route, and the carrageenan-induced edema was estimated from the obtained measurements.

[3] = Gastric ulceration (gastric irritation test); parameters: species or system Wistar male rats; details: rat, in vivo, po, read-out: UD50
Protocol: Five Wistar male rats weighing about 150 g. were used as one group. The rats were fasted for 24 hours before the test.
Six hours after orally administration of the present compounds to be tested, there was observed an existence of gastric ulcer by the method of Okabe et al (Ohyoyakuri, 16, 241 to 247 (1978)). The UD50 values were calculated from the ulcer incidence of gastric ulcer by the method of Litchfield-Wilcoxon.

[4] = Acute toxicity; parameters: species or system male SLC-ddY mice; details: mouse, in vivo, po
[5] = Hydrolysis of FP derivatives in rat plasma; format: in vitro ADME; details: Table 4; rat plasma (Compound Nos. 8 to 13), 37° C., one hour; read-out: Hydrolyzing rate
Protocol: as §1, §2

[6] = human, plasma, Table 1, human plasma
[7] = human, plasma, Table 4, human plasma (Compound Nos. 1 to 7)
[8] = Table 1, orally in rats, 50% ulcerative dose
[9] = Table 3, rats, orally, six hours after administration
[10] = Table 1, orally in mice, 50% lethal dose
[11] = Table 5, mice, orally, observation for 2 weeks

CC(=O)OCOC(=O)C(C)c1ccc(-c2ccccc2)c(F)c1 (stereo not shown) [Compound No. 1, acetoxymethyl 2-(2-fluoro-4-biphenylyl)propionate]
metabolised at 1 h [1, 6]: 97.5% | metabolised at 1 h [1, 7]: 97.5% | ED50 ([2]; iv, 2 h, read-out: ED50 i.v.): 0.08 mg/kg | ED50 ([2]; po, 1 h, read-out: ED50 p.o.): 0.5 mg/kg | ED50 ([2]; po, read-out: ED50 p.o.): 0.5 mg/kg | TD50 at 6 h [3, 8]: 3.7 mg/kg | TD50 at 6 h [3, 9]: 3.6 mg/kg | LD50 at 336 h [4, 10]: 880 mg/kg | LD50 at 336 h [4, 11]: 880 mg/kg

CCC(=O)OCOC(=O)C(C)c1ccc(-c2ccccc2)c(F)c1 (stereo not shown) [Compound No. 2, propionyloxymethyl 2-(2-fluoro-4-biphenylyl)propionate]
metabolised at 1 h [1, 6]: 94.6% | metabolised at 1 h [1, 7]: 94.6% | ED50 ([2]; iv, 2 h, read-out: ED50 i.v.): 0.07 mg/kg | ED50 ([2]; po, 1 h, read-out: ED50 p.o.): 0.5 mg/kg | ED50 ([2]; po, read-out: ED50 p.o.): 0.5 mg/kg | TD50 at 6 h [3, 8]: 2.5 mg/kg | TD50 at 6 h [3, 9]: 2.5 mg/kg | LD50 at 336 h [4, 10]: 750 mg/kg | LD50 at 336 h [4, 11]: 750 mg/kg

CC(C)C(=O)OCOC(=O)C(C)c1ccc(-c2ccccc2)c(F)c1 (stereo not shown) [Compound No. 3, isobutyryloxymethyl 2-(2-fluoro-4-biphenylyl)propionate]
metabolised at 1 h [1, 6]: 86.3% | metabolised at 1 h [1, 7]: 86.3% | ED50 ([2]; iv, 2 h, read-out: ED50 i.v.): 0.1 mg/kg | ED50 ([2]; po, 1 h, read-out: ED50 p.o.): 0.6 mg/kg | ED50 ([2]; po, read-out: ED50 p.o.): 0.6 mg/kg | TD50 at 6 h [3, 8]: 2 mg/kg | TD50 at 6 h [3, 9]: 2 mg/kg | LD50 at 336 h [4, 10]: 600 mg/kg | LD50 at 336 h [4, 11]: 600 mg/kg

C/C=C/C(=O)OCOC(=O)C(C)c1ccc(-c2ccccc2)c(F)c1 (stereo not shown) [Compound No. 4, crotonoyloxymethyl 2-(2-fluoro-4-biphenylyl)propionate]
metabolised at 1 h [1, 6]: 81.4% | metabolised at 1 h [1, 7]: 81.4% | ED50 ([2]; iv, 2 h, read-out: ED50 i.v.): 0.08 mg/kg | ED50 ([2]; po, 1 h, read-out: ED50 p.o.): 0.6 mg/kg | ED50 ([2]; po, read-out: ED50 p.o.): 0.6 mg/kg | TD50 at 6 h [3, 8]: 2 mg/kg | TD50 at 6 h [3, 9]: 2 mg/kg | LD50 at 336 h [4, 10]: 600 mg/kg | LD50 at 336 h [4, 11]: 600 mg/kg

CC(C)=CC(=O)OCOC(=O)C(C)c1ccc(-c2ccccc2)c(F)c1 (stereo not shown) [Compound No. 5, 3,3-dimethylacryloyloxymethyl 2-(2-fluoro-4-biphenylyl)propionate]
metabolised at 1 h [1, 6]: 64.8% | metabolised at 1 h [1, 7]: 115% | ED50 ([2]; iv, 2 h, read-out: ED50 i.v.): 0.06 mg/kg | ED50 ([2]; po, 1 h, read-out: ED50 p.o.): 0.5 mg/kg | ED50 ([2]; po, read-out: ED50 p.o.): 0.5 mg/kg | TD50 at 6 h [3, 8]: 2 mg/kg | TD50 at 6 h [3, 9]: 2 mg/kg | LD50 at 336 h [4, 10]: 900 mg/kg | LD50 at 336 h [4, 11]: 900 mg/kg

CCCCCCCCCCCCCCCC(=O)OCOC(=O)C(C)c1ccc(-c2ccccc2)c(F)c1 (stereo not shown) [Compound No. 6, palmitoyloxymethyl 2-(2-fluoro-4-biphenylyl)propionate]
metabolised at 1 h [1, 6]: 3.8% | metabolised at 1 h [1, 7]: 3.8% | ED50 ([2]; iv, 2 h, read-out: ED50 i.v.): 0.5 mg/kg | ED50 ([2]; po, 1 h, read-out: ED50 p.o.): 1.5 mg/kg | ED50 ([2]; po, read-out: ED50 p.o.): 1.5 mg/kg | TD50 at 6 h [3, 8]: 5 mg/kg | TD50 at 6 h [3, 9]: 5 mg/kg | LD50 at 336 h [4, 10]: 1000 mg/kg | LD50 at 336 h [4, 11]: > 1000 mg/kg

CC(C(=O)OCOC(=O)C(C)(C)C)c1ccc(-c2ccccc2)c(F)c1 (stereo not shown) [Compound No. 7, pivaloyloxymethyl 2-(2-fluoro-4-biphenylyl)propionate]
metabolised at 1 h [1, 6]: 70.3% | metabolised at 1 h [1, 7]: 70.3% | ED50 ([2]; iv, 2 h, read-out: ED50 i.v.): 0.1 mg/kg | ED50 ([2]; po, 1 h, read-out: ED50 p.o.): 0.6 mg/kg | ED50 ([2]; po, read-out: ED50 p.o.): 0.6 mg/kg | TD50 at 6 h [3, 8]: 2.5 mg/kg | TD50 at 6 h [3, 9]: 2.5 mg/kg | LD50 at 336 h [4, 10]: 840 mg/kg | LD50 at 336 h [4, 11]: 840 mg/kg

CC(=O)OCCOC(=O)C(C)c1ccc(-c2ccccc2)c(F)c1 (stereo not shown) [Compound No. 8, 2-(acetoxy)ethyl 2-(2-fluoro-4-biphenylyl)propionate]
ED50 ([2]; po, 1 h, read-out: ED50 p.o.): 0.7 mg/kg | ED50 ([2]; po, read-out: ED50 p.o.): 0.7 mg/kg | TD50 at 6 h [3, 8]: 2 mg/kg | TD50 at 6 h [3, 9]: 2 mg/kg | metabolised at 1 h [5]: 101% | LD50 at 336 h [4, 10]: 650 mg/kg | LD50 at 336 h [4, 11]: 650 mg/kg

CCC(=O)OCCOC(=O)C(C)c1ccc(-c2ccccc2)c(F)c1 (stereo not shown) [Compound No. 9, 2-(propionyloxy)ethyl 2-(2-fluoro-4-biphenylyl)propionate]
ED50 ([2]; po, 1 h, read-out: ED50 p.o.): 0.7 mg/kg | ED50 ([2]; po, read-out: ED50 p.o.): 0.7 mg/kg | TD50 at 6 h [3, 8]: 2 mg/kg | TD50 at 6 h [3, 9]: 2 mg/kg | metabolised at 1 h [5]: 98.9% | LD50 at 336 h [4, 10]: 700 mg/kg | LD50 at 336 h [4, 11]: 700 mg/kg

C/C=C/C(=O)OCCOC(=O)C(C)c1ccc(-c2ccccc2)c(F)c1 (stereo not shown) [Compound No. 10, 2-(crotonoyloxy)ethyl 2-(2-fluoro-4-biphenylyl)propionate]
ED50 ([2]; po, 1 h, read-out: ED50 p.o.): 0.9 mg/kg | ED50 ([2]; po, read-out: ED50 p.o.): 0.9 mg/kg | TD50 at 6 h [3, 8]: 3 mg/kg | TD50 at 6 h [3, 9]: 3 mg/kg | metabolised at 1 h [5]: 99.5% | LD50 at 336 h [4, 10]: 800 mg/kg | LD50 at 336 h [4, 11]: 800 mg/kg

CC(C)=CC(=O)OCCOC(=O)C(C)c1ccc(-c2ccccc2)c(F)c1 (stereo not shown) [Compound No. 11, 2-(3,3-dimethylacryloyloxy)ethyl 2-(2-fluoro-4-biphenylyl)propionate]
ED50 ([2]; po, 1 h, read-out: ED50 p.o.): 1 mg/kg | ED50 ([2]; po, read-out: ED50 p.o.): 1 mg/kg | TD50 at 6 h [3, 8]: 3 mg/kg | TD50 at 6 h [3, 9]: 3 mg/kg | metabolised at 1 h [5]: 99.8% | LD50 at 336 h [4, 10]: 880 mg/kg | LD50 at 336 h [4, 11]: 880 mg/kg

CC=CC=CC(=O)OCCOC(=O)C(C)c1ccc(-c2ccccc2)c(F)c1 (stereo not shown) [Compound No. 12, 2-(2,4-hexadienoyloxy)ethyl 2-(2-fluoro-4-biphenylyl)propionate]
ED50 ([2]; po, 1 h, read-out: ED50 p.o.): 0.9 mg/kg | ED50 ([2]; po, read-out: ED50 p.o.): 0.9 mg/kg | TD50 at 6 h [3, 8]: 3 mg/kg | TD50 at 6 h [3, 9]: 3 mg/kg | metabolised at 1 h [5]: 100% | LD50 at 336 h [4, 10]: 750 mg/kg | LD50 at 336 h [4, 11]: 750 mg/kg

CC(C)=CCCC(C)=CC(=O)OCCOC(=O)C(C)c1ccc(-c2ccccc2)c(F)c1 (stereo not shown) [Compound No. 13, 2-(3,7-dimethyl-2,6-octadienoyloxy)ethyl 2-(2-fluoro-4-biphenylyl)propionate]
ED50 ([2]; po, 1 h, read-out: ED50 p.o.): 0.9 mg/kg | ED50 ([2]; po, read-out: ED50 p.o.): 0.9 mg/kg | TD50 at 6 h [3, 8]: 3 mg/kg | TD50 at 6 h [3, 9]: 3 mg/kg | metabolised at 1 h [5]: 101% | LD50 at 336 h [4, 10]: 750 mg/kg | LD50 at 336 h [4, 11]: 750 mg/kg

CC(C(=O)O)c1ccc(-c2ccccc2)c(F)c1 (stereo not shown) [FP, 2-(2-fluoro-4-biphenylyl)propionic acid, reference compound]
ED50 ([2]; iv, 2 h, read-out: ED50 i.v.): 0.3 mg/kg | ED50 ([2]; po, 1 h, read-out: ED50 p.o.): 0.8 mg/kg | ED50 ([2]; po, read-out: ED50 p.o.): 0.8 mg/kg | TD50 at 6 h [3, 8]: 1 mg/kg | TD50 at 6 h [3, 9]: 1 mg/kg | LD50 at 336 h [4, 10]: 440 mg/kg | LD50 at 336 h [4, 11]: 440 mg/kg

COc1ccc2c(c1)c(CC(=O)OCC(=O)O)c(C)n2C(=O)c1ccc(Cl)cc1 [acemethacin, reference compound]
metabolised at 1 h ([1]; Table 4, human plasma (Compound Nos. 1 to 7)): 4.2% | ED50 ([2]; po, 1 h, Table 1, rats, orally, one hour before carrageenan injection, read-out: ED50 p.o.): 8.3 mg/kg | ED50 ([2]; po, Table 2, rats, orally one hour before carrageenan injection, measured 3 hours after carrageenan, read-out: ED50 p.o.): 8.3 mg/kg | LD50 at 336 h [4, 10]: 18 mg/kg | LD50 at 336 h [4, 11]: 18 mg/kg

COc1ccc2c(c1)c(CC(=O)O)c(C)n2C(=O)c1ccc(Cl)cc1 [indomethacin, reference compound]
ED50 ([2]; iv, 2 h, read-out: ED50 i.v.): 1.25 mg/kg | ED50 ([2]; po, 1 h, read-out: ED50 p.o.): 5.5 mg/kg | ED50 ([2]; po, read-out: ED50 p.o.): 5.5 mg/kg | TD50 at 6 h [3, 8]: 5 mg/kg | TD50 at 6 h [3, 9]: 5 mg/kg | LD50 at 336 h [4, 10]: 14 mg/kg | LD50 at 336 h [4, 11]: 14 mg/kg

Source: patent US4699925A, “Biphenylylpropionic acid derivative and pharmaceutical composition containing the same” (priority 1982, dated 1987)
